Test results reported in ChEMBL document CHEMBL1138920, “Putative therapeutic agents for the learning and memory deficits of people with Down syndrome” (Bioorg Med Chem Lett, 2006).
Blank lines part the entries; values can stand above or below the compound they belong to. Activity calls are given as the source filed them. The calls are words filed in the database; no cut-off is given here.

Columns and labels:
[1] = biological target: Dual specificity tyrosine-phosphorylation-regulated kinase 1A (Mus musculus, UniProt Q61214); assay: Inhibition of mouse Dyrk1A autophosphorylation in HEk293 cells; assay type: cell-based
[2] = biological target: Dual specificity tyrosine-phosphorylation-regulated kinase 1A (Mus musculus) (UniProt Q61214); assay: Inhibition of mouse Dyrk1A autophosphorylation in HEk293 cells at 10 uM; assay type: cell-based
[3] = biological target: Mitogen-activated protein kinase 10 (Homo sapiens) (UniProt P53779); assay: Activity against JNK3 at 10 uM in the presence of 100 uM ATP relative to control
Sequence of Mitogen-activated protein kinase 10 (Homo sapiens) (P53779 whole entry): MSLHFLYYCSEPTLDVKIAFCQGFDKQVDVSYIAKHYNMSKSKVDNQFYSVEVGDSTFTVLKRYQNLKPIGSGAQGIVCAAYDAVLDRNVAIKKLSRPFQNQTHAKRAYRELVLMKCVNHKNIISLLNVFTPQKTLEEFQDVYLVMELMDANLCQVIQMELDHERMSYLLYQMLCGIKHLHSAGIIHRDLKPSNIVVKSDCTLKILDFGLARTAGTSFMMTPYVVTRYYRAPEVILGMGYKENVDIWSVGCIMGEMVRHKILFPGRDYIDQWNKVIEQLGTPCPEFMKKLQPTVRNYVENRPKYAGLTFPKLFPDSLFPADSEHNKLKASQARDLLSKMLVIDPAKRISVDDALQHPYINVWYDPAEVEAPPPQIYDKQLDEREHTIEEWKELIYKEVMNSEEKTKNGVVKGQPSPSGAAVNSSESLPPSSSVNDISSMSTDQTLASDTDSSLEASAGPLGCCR

[4] = biological target: Tyrosine-protein kinase Lck (Homo sapiens) (UniProt P06239); assay: Activity against Lck at 10 uM in the presence of 100 uM ATP relative to control
Sequence of Tyrosine-protein kinase Lck (Homo sapiens) (P06239 2-509 limits assumed): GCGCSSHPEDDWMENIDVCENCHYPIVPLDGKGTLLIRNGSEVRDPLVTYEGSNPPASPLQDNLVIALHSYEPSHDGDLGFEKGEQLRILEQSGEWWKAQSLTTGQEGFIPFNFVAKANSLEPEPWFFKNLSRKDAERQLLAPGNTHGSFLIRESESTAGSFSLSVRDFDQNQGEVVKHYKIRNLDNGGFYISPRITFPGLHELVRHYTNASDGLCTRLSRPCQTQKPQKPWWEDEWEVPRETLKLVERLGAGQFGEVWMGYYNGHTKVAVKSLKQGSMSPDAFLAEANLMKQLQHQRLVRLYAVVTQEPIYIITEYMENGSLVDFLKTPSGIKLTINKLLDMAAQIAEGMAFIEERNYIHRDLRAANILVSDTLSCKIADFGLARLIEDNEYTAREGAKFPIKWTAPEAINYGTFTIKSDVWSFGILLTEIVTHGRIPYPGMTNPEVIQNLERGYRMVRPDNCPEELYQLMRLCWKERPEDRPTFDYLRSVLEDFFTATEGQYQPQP

[5] = biological target: CaM kinase II (Homo sapiens) (UniProt Q13557+Q13555+Q13554+Q9UQM7); assay: Activity against CaMK2 at 10 uM in the presence of 100 uM ATP relative to control; assay type: protein assay
[6] = biological target: Dual specificity protein kinase CLK3 (Homo sapiens) (UniProt P49761); assay: Activity against CLK3 at 10 uM in the presence of 100 uM ATP relative to control
Sequence of Dual specificity protein kinase CLK3 (Homo sapiens) (P49761 whole entry, looked up): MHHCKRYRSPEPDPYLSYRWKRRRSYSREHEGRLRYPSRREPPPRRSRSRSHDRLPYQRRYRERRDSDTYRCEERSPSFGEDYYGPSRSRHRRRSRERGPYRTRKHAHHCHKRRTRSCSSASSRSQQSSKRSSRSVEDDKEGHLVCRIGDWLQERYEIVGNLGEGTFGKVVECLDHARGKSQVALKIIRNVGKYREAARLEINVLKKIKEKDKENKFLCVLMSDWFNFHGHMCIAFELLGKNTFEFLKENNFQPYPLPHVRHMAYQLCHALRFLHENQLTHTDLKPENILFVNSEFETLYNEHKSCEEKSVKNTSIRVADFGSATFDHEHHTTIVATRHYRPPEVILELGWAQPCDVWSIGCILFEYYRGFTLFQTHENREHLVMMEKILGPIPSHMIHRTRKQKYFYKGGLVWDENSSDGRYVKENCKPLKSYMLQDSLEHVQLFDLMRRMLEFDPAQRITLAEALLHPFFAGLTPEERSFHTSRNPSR

[7] = biological target: Mitogen-activated protein kinase 14 (Homo sapiens) (UniProt Q16539); assay: Activity against SAPK2-alpha at 10 uM in the presence of 100 uM ATP relative to control
Sequence of Mitogen-activated protein kinase 14 (Homo sapiens) (Q16539 whole entry): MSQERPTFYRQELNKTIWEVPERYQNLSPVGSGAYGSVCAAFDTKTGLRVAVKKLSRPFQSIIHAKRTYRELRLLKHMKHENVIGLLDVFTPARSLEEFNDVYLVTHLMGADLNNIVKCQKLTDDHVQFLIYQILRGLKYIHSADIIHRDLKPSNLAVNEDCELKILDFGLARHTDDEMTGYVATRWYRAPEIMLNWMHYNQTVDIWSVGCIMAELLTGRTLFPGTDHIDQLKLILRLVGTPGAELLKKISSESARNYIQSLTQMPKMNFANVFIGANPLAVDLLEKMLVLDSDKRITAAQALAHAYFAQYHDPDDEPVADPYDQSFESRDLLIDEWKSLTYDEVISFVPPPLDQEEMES

[8] = biological target: Casein kinase II (Homo sapiens) (UniProt P67870+P68400+P19784); assay: Activity against CK2 at 10 uM in the presence of 100 uM ATP relative to control; assay type: protein-complex assay
[9] = biological target: Tyrosine-protein kinase ABL1 (Homo sapiens) (UniProt P00519); assay: Activity against Abl at 10 uM in the presence of 100 uM ATP relative to control
Sequence of Tyrosine-protein kinase ABL1 (Homo sapiens) (P00519 whole entry): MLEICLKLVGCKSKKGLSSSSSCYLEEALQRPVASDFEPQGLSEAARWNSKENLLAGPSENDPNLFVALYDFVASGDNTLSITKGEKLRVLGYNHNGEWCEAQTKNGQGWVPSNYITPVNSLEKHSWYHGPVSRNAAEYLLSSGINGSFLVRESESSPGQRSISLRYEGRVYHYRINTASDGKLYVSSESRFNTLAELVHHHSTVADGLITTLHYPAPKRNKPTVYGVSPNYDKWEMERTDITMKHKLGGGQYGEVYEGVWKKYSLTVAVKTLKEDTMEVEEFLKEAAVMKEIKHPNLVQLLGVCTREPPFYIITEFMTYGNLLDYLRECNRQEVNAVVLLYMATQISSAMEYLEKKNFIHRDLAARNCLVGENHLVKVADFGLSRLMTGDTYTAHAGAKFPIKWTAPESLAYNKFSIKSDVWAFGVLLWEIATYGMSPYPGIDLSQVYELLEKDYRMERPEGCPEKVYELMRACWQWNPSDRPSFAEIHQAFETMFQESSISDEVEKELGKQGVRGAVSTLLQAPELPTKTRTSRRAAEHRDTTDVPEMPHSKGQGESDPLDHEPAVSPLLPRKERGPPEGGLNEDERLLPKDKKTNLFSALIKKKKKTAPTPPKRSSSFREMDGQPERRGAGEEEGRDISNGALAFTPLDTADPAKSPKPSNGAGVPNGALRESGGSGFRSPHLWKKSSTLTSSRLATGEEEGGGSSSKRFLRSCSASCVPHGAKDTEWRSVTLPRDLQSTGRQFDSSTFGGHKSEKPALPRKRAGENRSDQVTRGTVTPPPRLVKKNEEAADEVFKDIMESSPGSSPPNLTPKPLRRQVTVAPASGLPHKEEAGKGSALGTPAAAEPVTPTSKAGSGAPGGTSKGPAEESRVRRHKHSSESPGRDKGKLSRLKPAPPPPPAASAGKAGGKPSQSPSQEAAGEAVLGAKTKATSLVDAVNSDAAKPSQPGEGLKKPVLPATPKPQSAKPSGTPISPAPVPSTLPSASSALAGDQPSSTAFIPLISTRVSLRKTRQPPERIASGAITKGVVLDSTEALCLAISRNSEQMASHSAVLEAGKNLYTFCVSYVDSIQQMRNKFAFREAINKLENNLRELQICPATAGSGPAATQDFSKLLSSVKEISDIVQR

[10] = biological target: cAMP-dependent protein kinase (PKA) (Homo sapiens) (UniProt P22694+P17612+P22612); assay: Activity against PKA at 10 uM in the presence of 100 uM ATP relative to control; assay type: protein assay
[11] = biological target: Protein kinase C alpha type (Homo sapiens) (UniProt P17252); assay: Activity against PKCalpha at 10 uM in the presence of 100 uM ATP relative to control
[12] = biological target: Glycogen synthase kinase-3 beta (Homo sapiens) (UniProt P49841); assay: Activity against GSK3-beta at 10 uM in the presence of 100 uM ATP relative to control
Sequence of Glycogen synthase kinase-3 beta (Homo sapiens) (P49841 whole entry, looked up): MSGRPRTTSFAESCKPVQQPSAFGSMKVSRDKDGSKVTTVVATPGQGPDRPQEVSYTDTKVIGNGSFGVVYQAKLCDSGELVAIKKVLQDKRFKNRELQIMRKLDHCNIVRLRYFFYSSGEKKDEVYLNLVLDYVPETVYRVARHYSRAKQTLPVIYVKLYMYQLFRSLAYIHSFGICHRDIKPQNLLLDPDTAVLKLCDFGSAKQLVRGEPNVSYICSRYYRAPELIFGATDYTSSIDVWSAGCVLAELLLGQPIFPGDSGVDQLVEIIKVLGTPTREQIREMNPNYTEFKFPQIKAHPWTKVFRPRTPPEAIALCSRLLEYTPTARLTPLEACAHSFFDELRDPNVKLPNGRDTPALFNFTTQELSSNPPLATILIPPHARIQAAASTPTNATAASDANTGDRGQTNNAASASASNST

[13] = biological target: T1, Dual specificity tyrosine-phosphorylation-regulated kinase 2 (Homo sapiens) (UniProt Q92630); assay: Activity against DYRK2 at 10 uM in the presence of 100 uM ATP relative to control
T1 sequence (whole entry): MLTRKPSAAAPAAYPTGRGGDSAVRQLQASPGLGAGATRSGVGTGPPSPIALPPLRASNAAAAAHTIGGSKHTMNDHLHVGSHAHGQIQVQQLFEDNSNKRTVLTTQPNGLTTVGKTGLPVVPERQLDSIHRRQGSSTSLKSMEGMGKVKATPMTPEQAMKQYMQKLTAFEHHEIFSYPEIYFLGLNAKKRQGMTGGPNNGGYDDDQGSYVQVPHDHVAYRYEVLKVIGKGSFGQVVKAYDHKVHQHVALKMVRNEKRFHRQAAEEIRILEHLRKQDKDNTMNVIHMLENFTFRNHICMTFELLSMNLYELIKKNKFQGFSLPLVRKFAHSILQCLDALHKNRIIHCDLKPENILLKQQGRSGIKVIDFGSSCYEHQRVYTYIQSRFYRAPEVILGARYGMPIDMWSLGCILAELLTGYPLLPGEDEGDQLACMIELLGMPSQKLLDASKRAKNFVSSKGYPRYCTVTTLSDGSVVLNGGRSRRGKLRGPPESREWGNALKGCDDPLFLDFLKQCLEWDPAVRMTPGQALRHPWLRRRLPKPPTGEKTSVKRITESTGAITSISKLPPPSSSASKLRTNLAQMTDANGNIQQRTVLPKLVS

[14] = biological target: Cyclin-dependent kinase 2/cyclin A (Homo sapiens) (UniProt P24941+P20248+P78396); assay: Activity against CDK2/cyclinA at 10 uM in the presence of 100 uM ATP relative to control; assay type: protein-complex assay
[15] = biological target: T2, MAP kinase-activated protein kinase 5 (Homo sapiens) (UniProt Q8IW41); assay: Activity against PRAK at 10 uM in the presence of 100 uM ATP relative to control
T2 sequence (whole entry): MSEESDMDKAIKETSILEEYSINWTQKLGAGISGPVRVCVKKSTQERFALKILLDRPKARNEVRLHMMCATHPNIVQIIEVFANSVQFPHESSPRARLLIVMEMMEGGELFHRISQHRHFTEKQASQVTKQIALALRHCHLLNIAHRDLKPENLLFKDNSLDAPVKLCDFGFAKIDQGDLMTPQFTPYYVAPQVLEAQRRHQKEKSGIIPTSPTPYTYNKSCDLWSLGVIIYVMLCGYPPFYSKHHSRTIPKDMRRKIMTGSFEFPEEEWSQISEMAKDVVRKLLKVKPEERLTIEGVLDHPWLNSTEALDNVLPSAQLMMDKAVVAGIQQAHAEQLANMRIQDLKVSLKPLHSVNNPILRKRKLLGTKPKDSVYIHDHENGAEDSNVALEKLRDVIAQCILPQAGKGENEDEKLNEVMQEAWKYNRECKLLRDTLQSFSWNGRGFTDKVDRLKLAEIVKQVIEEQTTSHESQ

[16] = biological target: Cyclin-dependent kinase 5/CDK5 activator 1 (Homo sapiens) (UniProt Q00535+Q15078); assay: Activity against CDK5/p35 at 10 uM in the presence of 100 uM ATP relative to control; assay type: protein-complex assay
Sequence of Cyclin-dependent kinase 5/CDK5 activator 1 (Homo sapiens) (Q00535 whole entry): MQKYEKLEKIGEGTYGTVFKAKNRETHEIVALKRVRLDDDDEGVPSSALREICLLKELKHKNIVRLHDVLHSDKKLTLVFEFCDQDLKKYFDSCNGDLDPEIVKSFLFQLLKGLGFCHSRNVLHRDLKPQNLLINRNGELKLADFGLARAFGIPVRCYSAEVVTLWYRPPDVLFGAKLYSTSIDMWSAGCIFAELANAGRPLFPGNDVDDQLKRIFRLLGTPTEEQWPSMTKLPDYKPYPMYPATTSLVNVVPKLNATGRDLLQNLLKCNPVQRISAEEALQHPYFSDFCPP
Sequence of Cyclin-dependent kinase 5/CDK5 activator 1 (Homo sapiens) (Q15078 99-307 partner limits assumed): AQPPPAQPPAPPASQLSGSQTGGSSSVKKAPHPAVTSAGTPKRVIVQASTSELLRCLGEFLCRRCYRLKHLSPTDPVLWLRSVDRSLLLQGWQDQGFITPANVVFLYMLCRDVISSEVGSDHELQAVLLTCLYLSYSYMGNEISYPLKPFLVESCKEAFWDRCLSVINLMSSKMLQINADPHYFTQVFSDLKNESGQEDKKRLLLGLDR

[17] = biological target: Mitogen-activated protein kinase 1 (Homo sapiens) (UniProt P28482); assay: Activity against MAPK2 at 10 uM in the presence of 100 uM ATP relative to control
Sequence of Mitogen-activated protein kinase 1 (Homo sapiens) (P28482 whole entry): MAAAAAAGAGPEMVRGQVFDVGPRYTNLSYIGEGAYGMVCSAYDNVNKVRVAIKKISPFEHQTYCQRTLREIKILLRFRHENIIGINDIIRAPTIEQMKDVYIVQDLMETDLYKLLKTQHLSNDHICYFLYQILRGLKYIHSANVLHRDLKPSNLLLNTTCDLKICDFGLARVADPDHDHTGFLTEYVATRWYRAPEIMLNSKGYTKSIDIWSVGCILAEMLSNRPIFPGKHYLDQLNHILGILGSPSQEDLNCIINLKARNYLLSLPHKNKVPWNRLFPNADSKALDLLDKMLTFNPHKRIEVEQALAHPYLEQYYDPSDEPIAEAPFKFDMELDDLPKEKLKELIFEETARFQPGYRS

SMILES: Cc1cccc(Nc2nc(-c3c(C)nc4ncccn34)cs2)c1
IC50 [1]: > 50 µM
inhibition [2]: 25%

SMILES: COc1ccc(O)c(-c2cc(-c3ccccc3Cl)[nH]n2)c1
inhibition [2]: 43%

SMILES: COc1ccc(O)c(-c2cc(-c3ccccc3Cl)n[nH]2)c1
IC50 [1]: 20 µM

SMILES: CCOC(=O)c1ccc2ncc(C(=O)OCC)c(Nc3ccc(C)c(Br)c3)c2c1
IC50 [1]: 50 µM
inhibition [2]: 13%

SMILES: COc1cc(/C=C2\C(=O)NN(c3cccc(Cl)c3)C2=O)ccc1O
IC50 [1]: > 50 µM
inhibition [2]: 74%

SMILES: CCOC(=O)c1cnc2ccc(C(=O)OC)cc2c1Nc1cccc(C(C)=O)c1
IC50 [1]: 50 µM
inhibition [2]: 51%

SMILES: C=CCOc1ccc(Br)cc1/C=C1\SC(Nc2ccc(Cl)c(C(=O)O)c2)=NC1=O
IC50 [1]: 20 µM
inhibition [2]: inactive

SMILES: CN1C(=O)/C(=C2\SC(Nc3ccc(F)cc3)=NC2=O)c2ccccc21
IC50 [1]: 50 µM
inhibition [2]: 12%

Continued, values first:

IC50 [1]: 10 µM
inhibition [2]: 52%
SMILES: CCOC(=O)c1ccc2ncc(C(=O)OCC)c(Nc3ccc(NC(C)=O)cc3)c2c1

IC50 [1]: 5 µM
Activity [3]: 98%
Activity [4]: 113%
Activity [5]: 98%
Activity [6]: 11%
Activity [7]: 101%
Activity [8]: 110%
Activity [9]: 96%
Activity [10]: 104%
Activity [11]: 83%
Activity [12]: 47%
inhibition [2]: 41%
Activity [13]: 77%
Activity [14]: 96%
Activity [15]: 69%
Activity [16]: 104%
Activity [17]: 138%
SMILES: COc1cccc(NC(=O)Nc2nnc(-c3ccncc3)s2)c1

IC50 [1]: 5 µM
inhibition [2]: 8%
SMILES: Brc1ccc(Nc2nc(NCc3ccco3)c3ccccc3n2)cc1

IC50 [1]: 2.5 µM
Activity [3]: 86%
Activity [4]: 105%
Activity [5]: 72%
Activity [6]: 36%
Activity [7]: 112%
Activity [8]: 61%
Activity [9]: 94%
Activity [10]: 107%
Activity [11]: 78%
Activity [12]: 69%
inhibition [2]: 82%
Activity [13]: 59%
Activity [14]: 90%
Activity [15]: 71%
Activity [16]: 99%
Activity [17]: 122%
SMILES: COc1cc(/C=C2\C(=O)NN(c3ccc(Cl)c(Cl)c3)C2=O)ccc1O
